What was measured:
Assay in all cases: Screening of fungi for enzyme activity with 4-methylumbelliferone-labelled substrates
Type in all cases: cell-based
[1] = test system: Eurotium sp. (AAS 36); conditions: substrate 10 μM, 25° C., pH 5; for Enzyme activity: amount of released 4-methylumbelliferone: mineral medium; for Enzyme activity: amount of released 4-methylumbelliferone during 5 hours of incubation: vegetable juice medium
[2] = test system: Mucor racemosus (AAS 310); conditions: substrate 10 μM, 25° C., pH 5; for Enzyme activity: amount of released 4-methylumbelliferone: mineral medium; for Enzyme activity: amount of released 4-methylumbelliferone during 5 hours of incubation: vegetable juice medium
[3] = test system: Rhizomucor pusillus (AAS 300); conditions: substrate 10 μM, 25° C., pH 5; for Enzyme activity: amount of released 4-methylumbelliferone: mineral medium; for Enzyme activity: amount of released 4-methylumbelliferone during 5 hours of incubation: vegetable juice medium
[4] = test system: Cladosporium herbarum (AGM 8); conditions: substrate 10 μM, 25° C., pH 5; for Enzyme activity: amount of released 4-methylumbelliferone: mineral medium; for Enzyme activity: amount of released 4-methylumbelliferone during 5 hours of incubation: vegetable juice medium
[5] = test system: Paecilomyces farinosus (AGM 5); conditions: substrate 10 μM, 25° C., pH 5; for Enzyme activity: amount of released 4-methylumbelliferone: mineral medium; for Enzyme activity: amount of released 4-methylumbelliferone during 5 hours of incubation: vegetable juice medium
[6] = test system: Aspergillus oryzae (AGM 11); conditions: substrate 10 μM, 25° C., pH 5; for Enzyme activity: amount of released 4-methylumbelliferone: mineral medium; for Enzyme activity: amount of released 4-methylumbelliferone during 5 hours of incubation: vegetable juice medium
[7] = test system: Sodaria fimicola (AAS 17); conditions: substrate 10 μM, 25° C., pH 5; for Enzyme activity: amount of released 4-methylumbelliferone: mineral medium; for Enzyme activity: amount of released 4-methylumbelliferone during 5 hours of incubation: vegetable juice medium
[8] = test system: Penicillium solitum (IBT 13771); conditions: substrate 10 μM, 25° C., pH 5; for Enzyme activity: amount of released 4-methylumbelliferone: mineral medium; for Enzyme activity: amount of released 4-methylumbelliferone during 5 hours of incubation: vegetable juice medium
[9] = test system: Penicillium commune (IBT 13713); conditions: substrate 10 μM, 25° C., pH 5; for Enzyme activity: amount of released 4-methylumbelliferone: mineral medium; for Enzyme activity: amount of released 4-methylumbelliferone during 5 hours of incubation: vegetable juice medium
[10] = test system: Aspergillus versicolor (IBT 13738); conditions: substrate 10 μM, 25° C., pH 5; for Enzyme activity: amount of released 4-methylumbelliferone: mineral medium; for Enzyme activity: amount of released 4-methylumbelliferone during 5 hours of incubation: vegetable juice medium
[11] = test system: Trametes versicolor (AGM 24); conditions: substrate 10 μM, 25° C., pH 5; for Enzyme activity: amount of released 4-methylumbelliferone: mineral medium; for Enzyme activity: amount of released 4-methylumbelliferone during 5 hours of incubation: vegetable juice medium
[12] = test system: Aureobasidium pullulans (QM 3092); conditions: substrate 10 μM, 25° C., pH 5; for Enzyme activity: amount of released 4-methylumbelliferone during 5 hours of incubation: Aureobasidium pulluians (QM 3092), vegetable juice medium; for Enzyme activity: amount of released 4-methylumbelliferone: Aureobasidium pullulans (QM 3092), mineral medium
[13] = test system: Ascobolus crenulatus (AAS 1); conditions: substrate 10 μM, 25° C., pH 5; for Enzyme activity: amount of released 4-methylumbelliferone: mineral medium; for Enzyme activity: amount of released 4-methylumbelliferone during 5 hours of incubation: vegetable juice medium
[14] = test system: Schizophyllum commune (AGM 25); conditions: substrate 10 μM, 25° C., pH 5; for Enzyme activity: amount of released 4-methylumbelliferone: mineral medium; for Enzyme activity: amount of released 4-methylumbelliferone during 5 hours of incubation: vegetable juice medium

Enzyme activity: amount of released 4-methylumbelliferone [1] | Enzyme activity: amount of released 4-methylumbelliferone during 5 hours of incubation [1] | Enzyme activity: amount of released 4-methylumbelliferone [2] | Enzyme activity: amount of released 4-methylumbelliferone during 5 hours of incubation [2] | Enzyme activity: amount of released 4-methylumbelliferone [3] | Enzyme activity: amount of released 4-methylumbelliferone during 5 hours of incubation [3] | Enzyme activity: amount of released 4-methylumbelliferone [4] | Enzyme activity: amount of released 4-methylumbelliferone during 5 hours of incubation [4] | Enzyme activity: amount of released 4-methylumbelliferone [5] | Enzyme activity: amount of released 4-methylumbelliferone during 5 hours of incubation [5] | Enzyme activity: amount of released 4-methylumbelliferone [6] | Enzyme activity: amount of released 4-methylumbelliferone during 5 hours of incubation [6] | Enzyme activity: amount of released 4-methylumbelliferone [7] | Enzyme activity: amount of released 4-methylumbelliferone during 5 hours of incubation [7] | Enzyme activity: amount of released 4-methylumbelliferone [8] | Enzyme activity: amount of released 4-methylumbelliferone during 5 hours of incubation [8] | Enzyme activity: amount of released 4-methylumbelliferone [9] | Enzyme activity: amount of released 4-methylumbelliferone during 5 hours of incubation [9] | Enzyme activity: amount of released 4-methylumbelliferone [10] | Enzyme activity: amount of released 4-methylumbelliferone during 5 hours of incubation [10] | SMILES | other results
0 µmol | 0 µmol | * (0.4 ≦ * < 1) | * (0.4 ≦ * < 1) | 0 µmol | 0 µmol | 0 µmol | 0 µmol | 0 µmol | 0 µmol | 0 µmol | 0 µmol | 0 µmol | 0 µmol | 0 µmol | 0 µmol | 0 µmol | 0 µmol | 0 µmol | 0 µmol | CC(=O)N[C@H]1[C@H](Oc2ccc3c(C)cc(=O)oc3c2)O[C@H](COS(=O)(=O)O)[C@@H](O)[C@@H]1O [substrate 1, 4-methylumbelliferyl 7-6(sulfo-2-acetamido-2-deoxy-β-D-glucopyranoside)] | Enzyme activity: amount of released 4-methylumbelliferone [11]: 0 µmol; Enzyme activity: amount of released 4-methylumbelliferone during 5 hours of incubation [11]: 0 µmol; Enzyme activity: amount of released 4-methylumbelliferone during 5 hours of incubation [12]: 0 µmol; Enzyme activity: amount of released 4-methylumbelliferone [12]: 0 µmol; Enzyme activity: amount of released 4-methylumbelliferone [13]: 0 µmol; Enzyme activity: amount of released 4-methylumbelliferone during 5 hours of incubation [13]: 0 µmol; Enzyme activity: amount of released 4-methylumbelliferone [14]: * (0.4 ≦ * < 1); Enzyme activity: amount of released 4-methylumbelliferone during 5 hours of incubation [14]: 0 µmol
0 µmol | 0 µmol | 0 µmol | 0 µmol | 0 µmol | 0 µmol | 0 µmol | 0 µmol | 0 µmol | 0 µmol | 0 µmol | 0 µmol | 0 µmol | 0 µmol | 0 µmol | 0 µmol | 0 µmol | 0 µmol | 0 µmol | 0 µmol | CC(=O)N[C@H]1[C@@H](Oc2ccc3c(C)cc(=O)oc3c2)O[C@H](CO)[C@@H](O)[C@@H]1O [substrate 2, 4-methylumbelliferyl N-acetyl-α-D-glucosaminide] | Enzyme activity: amount of released 4-methylumbelliferone [11]: 0 µmol; Enzyme activity: amount of released 4-methylumbelliferone during 5 hours of incubation [11]: 0 µmol; Enzyme activity: amount of released 4-methylumbelliferone during 5 hours of incubation [12]: 0 µmol; Enzyme activity: amount of released 4-methylumbelliferone [12]: 0 µmol; Enzyme activity: amount of released 4-methylumbelliferone [13]: 0 µmol; Enzyme activity: amount of released 4-methylumbelliferone during 5 hours of incubation [13]: 0 µmol; Enzyme activity: amount of released 4-methylumbelliferone [14]: 0 µmol; Enzyme activity: amount of released 4-methylumbelliferone during 5 hours of incubation [14]: 0 µmol
0 µmol | 0 µmol | 0 µmol | ** (1 ≦ ** 2) | 0 µmol | 0 µmol | 0 µmol | 0 µmol | 0 µmol | 0 µmol | 0 µmol | *** (2 ≦ ***) | 0 µmol | *** (2 ≦ ***) | 0 µmol | 0 µmol | 0 µmol | * (0.4 ≦ * < 1) | 0 µmol | 0 µmol | Cc1cc(=O)oc2cc(O[C@@H]3O[C@H](CO)[C@@H](O)[C@H](O)[C@@H]3O)ccc12 [substrate 6, 4-methylumbelliferyl β-D-mannopyranoside] | Enzyme activity: amount of released 4-methylumbelliferone [11]: 0 µmol; Enzyme activity: amount of released 4-methylumbelliferone during 5 hours of incubation [11]: 0 µmol; Enzyme activity: amount of released 4-methylumbelliferone during 5 hours of incubation [12]: ** (1 ≦ ** 2); Enzyme activity: amount of released 4-methylumbelliferone [12]: 0 µmol; Enzyme activity: amount of released 4-methylumbelliferone [13]: 0 µmol; Enzyme activity: amount of released 4-methylumbelliferone during 5 hours of incubation [13]: * (0.4 ≦ * < 1); Enzyme activity: amount of released 4-methylumbelliferone [14]: 0 µmol; Enzyme activity: amount of released 4-methylumbelliferone during 5 hours of incubation [14]: *** (2 ≦ ***)
0 µmol | 0 µmol | 0 µmol | 0 µmol | 0 µmol | * (0.4 ≦ * < 1) | 0 µmol | 0 µmol | 0 µmol | 0 µmol | 0 µmol | 0 µmol | 0 µmol | ** (1 ≦ ** 2) | 0 µmol | 0 µmol | 0 µmol | 0 µmol | 0 µmol | 0 µmol | Cc1cc(=O)oc2cc(O[C@H]3O[C@H](CO)[C@@H](O)[C@H](O)[C@H]3O)ccc12 [substrate 7, 4-methylumbelliferyl α-D-glucoside] | Enzyme activity: amount of released 4-methylumbelliferone [11]: 0 µmol; Enzyme activity: amount of released 4-methylumbelliferone during 5 hours of incubation [11]: 0 µmol; Enzyme activity: amount of released 4-methylumbelliferone during 5 hours of incubation [12]: *** (2 ≦ ***); Enzyme activity: amount of released 4-methylumbelliferone [12]: *** (2 ≦ ***); Enzyme activity: amount of released 4-methylumbelliferone [13]: 0 µmol; Enzyme activity: amount of released 4-methylumbelliferone during 5 hours of incubation [13]: 0 µmol; Enzyme activity: amount of released 4-methylumbelliferone [14]: 0 µmol; Enzyme activity: amount of released 4-methylumbelliferone during 5 hours of incubation [14]: 0 µmol

SMILES | Enzyme activity: amount of released 4-methylumbelliferone [1] | Enzyme activity: amount of released 4-methylumbelliferone during 5 hours of incubation [1] | Enzyme activity: amount of released 4-methylumbelliferone [2] | Enzyme activity: amount of released 4-methylumbelliferone during 5 hours of incubation [2] | Enzyme activity: amount of released 4-methylumbelliferone [3] | Enzyme activity: amount of released 4-methylumbelliferone during 5 hours of incubation [3] | Enzyme activity: amount of released 4-methylumbelliferone [4] | Enzyme activity: amount of released 4-methylumbelliferone during 5 hours of incubation [4] | Enzyme activity: amount of released 4-methylumbelliferone [5] | Enzyme activity: amount of released 4-methylumbelliferone during 5 hours of incubation [5] | Enzyme activity: amount of released 4-methylumbelliferone [6] | Enzyme activity: amount of released 4-methylumbelliferone during 5 hours of incubation [6] | Enzyme activity: amount of released 4-methylumbelliferone [7] | Enzyme activity: amount of released 4-methylumbelliferone during 5 hours of incubation [7] | Enzyme activity: amount of released 4-methylumbelliferone [8] | Enzyme activity: amount of released 4-methylumbelliferone during 5 hours of incubation [8] | Enzyme activity: amount of released 4-methylumbelliferone [9] | Enzyme activity: amount of released 4-methylumbelliferone during 5 hours of incubation [9] | Enzyme activity: amount of released 4-methylumbelliferone [10] | Enzyme activity: amount of released 4-methylumbelliferone during 5 hours of incubation [10] | other results
Cc1cc(=O)oc2cc(OC3OC(CO)C(O)C(O)C3O)ccc12 [substrate 5, 4-methylumbelliferyl α-D-mannopyranoside] | 0 µmol | * (0.4 ≦ * < 1) | 0 µmol | * (0.4 ≦ * < 1) | 0 µmol | *** (2 ≦ ***) | 0 µmol | 0 µmol | 0 µmol | 0 µmol | 0 µmol | *** (2 ≦ ***) | 0 µmol | *** (2 ≦ ***) | 0 µmol | 0 µmol | 0 µmol | * (0.4 ≦ * < 1) | 0 µmol | 0 µmol | Enzyme activity: amount of released 4-methylumbelliferone [11]: 0 µmol; Enzyme activity: amount of released 4-methylumbelliferone during 5 hours of incubation [11]: * (0.4 ≦ * < 1); Enzyme activity: amount of released 4-methylumbelliferone during 5 hours of incubation [12]: ** (1 ≦ ** 2); Enzyme activity: amount of released 4-methylumbelliferone [12]: 0 µmol; Enzyme activity: amount of released 4-methylumbelliferone [13]: 0 µmol; Enzyme activity: amount of released 4-methylumbelliferone during 5 hours of incubation [13]: 0 µmol; Enzyme activity: amount of released 4-methylumbelliferone [14]: 0 µmol; Enzyme activity: amount of released 4-methylumbelliferone during 5 hours of incubation [14]: ** (1 ≦ ** 2)

— US6372446B1, “Method of selectively determining a fungal biomass” (Mycometer ApS, priority 1997, dated 2002)
